Data taken from PubChem BioAssay (NCI).
“And” between values parts separate entries of the source, which are not always exact repeats. Identical values can stand only once.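 How tested: cells in 96-well plates exposed to compound for 48 hours at five concentrations. GI50 marks 50% less growth. TGI is the concentration that stops growth completely.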

Experiments:
Assay in all cases: NCI-60 cell line screen, 48 h
[1] = test system: NCI-H23 lung
[2] = test system: SK-OV-3 ovarian
[3] = test system: SNB-19 CNS
[4] = test system: MCF7 breast
[5] = test system: OVCAR-4 ovarian
[6] = test system: PC-3 prostate
[7] = test system: EKVX NSCLC
[8] = test system: ACHN renal
[9] = test system: A498 renal
[10] = test system: NCI-H460 lung
[11] = test system: MOLT-4 leukemia
[12] = test system: SK-MEL-5 melanoma
[13] = test system: UACC-257 melanoma

Compound | TGI [1] | TGI [2] | TGI [3] | TGI [4] | TGI [5] | TGI [6] | TGI [7] | TGI [8] | TGI [9] | TGI [10] | TGI [11] | TGI [12] | TGI [13] | GI50 [3] | GI50 [7] | GI50 [11] | GI50 [13]
Cc1ccc2c3c1O[C@H]1c4nc5ccccc5cc4C[C@@]4(O)[C@@H](C2)N(CC2CC2)CC[C@]314 | 67.7 µM | 31.3 µM | > 100 µM | 22.3 µM | 46 µM | 26.5 µM | 37.9 µM | 23.4 µM | 30.7 µM | 35.8 µM | 15.5 µM | 19.2 µM | 41.1 µM | – | – | – | –
C=C[C@H]1CN2CC[C@H]1C[C@@H]2[C@@H](O)c1ccnc2ccccc12 | > 100 µM | > 100 µM | > 100 µM | > 100 µM | > 100 µM | > 100 µM | > 100 µM | > 100 µM | > 100 µM | > 100 µM | > 100 µM | > 100 µM | > 100 µM | – | – | – | –
CCOC(=O)/C(=C\c1ccc(CO)o1)P(=O)(OCC)OCC | 57.8 µM | > 100 µM | > 100 µM | > 100 µM | 35.9 µM | > 100 µM | > 100 µM | > 100 µM | > 100 µM | 32.6 µM | > 100 µM | > 100 µM | > 100 µM | – | – | – | –
COc1ccc(N=C/C=C/Nc2ccc(OC)cc2)cc1 | 41.2 µM | 34.3 µM | 10.4 µM | 16.3 µM | 9.99 µM | 26.1 µM | 30.6 µM | 29 µM | 27.2 µM | 28.1 µM | 22.9 µM | 19.5 µM | 18.7 µM | – | – | – | –
CC(=O)Oc1ccc2c(c1)CC[C@@H]1C2[C@@H](O[N+](=O)[O-])C[C@@]2(C)C1CC[C@@H]2O (stereo not given in full) | > 100 µM | > 100 µM | > 100 µM | > 90.3 µM | > 100 µM | > 100 µM | 93.6 µM | > 100 µM | 72.5 µM | > 89.1 µM | > 85.8 µM | > 100 µM | > 100 µM | – | – | – | –
COC(=O)CC1C2CC3C(C2=O)C13 (stereo not given) | > 100 µM | > 100 µM | > 100 µM | > 100 µM | > 100 µM | > 100 µM | > 100 µM | > 100 µM | > 100 µM | > 100 µM | > 100 µM | > 100 µM | > 100 µM | – | – | – | –
NC1CCC(c2cc3ccccc3s2)(N2CCCCC2)CC1 (stereo not given) | 3.23 µM | 22.6 µM | 26.8 µM | 3.05 µM | 15.2 µM | 3.59 µM | 11.9 µM | 12.5 µM | 22.9 µM | 3.06 µM | 3.25 µM | 4.16 µM | 3.44 µM | – | – | – | –
COC1C(O)=C2C(=O)OC(C)(O)/C=C/C=C\C=C/C=C/C(c3ccccc3)NC(=O)/C=C/C=C/C=C/C=C/C2(C)C1O (stereo not given) | 0.119 µM and 0.129 µM | 0.134 µM | 0.239 µM and 0.112 µM | 0.0273 µM and 0.169 µM | 0.248 µM and 0.0594 µM | 0.136 µM and 0.159 µM | 0.122 µM and 0.237 µM | 0.0323 µM and 0.119 µM | 0.0976 µM | 0.0149 µM and 0.131 µM | – | 0.164 µM | 0.17 µM and 0.31 µM | 0.0133 µM | 0.0624 µM | 0.0697 µM | 0.0838 µM
CC[C@H]1C=CCC[C@@]2(C[C@@H]3CC[C@@H]4[C@H](C(=O)OCCCCCCCCCCCCCCCC(=O)N(CCCN)C[C@@H](O)CCN)[C@]5(CCC[C@@H](C)O5)NC(=[N+]34)N2)O1 | 2.87 µM | 4.77 µM | 1.27 µM | 1.71 µM | > 5.94 µM | 1.96 µM | 2.49 µM | > 4.73 µM | 1.74 µM | 2.15 µM | 0.524 µM | 0.173 µM | 0.573 µM | – | – | – | –
COc1ccc(CN=CN/C(C#N)=C(\N)C#N)cc1OC | > 100 µM | > 100 µM | > 100 µM | > 100 µM | > 100 µM | > 100 µM | > 100 µM | > 100 µM | > 100 µM | > 100 µM | > 100 µM | > 100 µM | > 100 µM | – | – | – | –
COc1ccc(-c2cn3c(n2)sc2cc(C)ccc23)cc1 | > 100 µM | 98.9 µM | > 100 µM | 95.7 µM | 83.8 µM | 50.9 µM | 39.7 µM | > 100 µM | 47.4 µM | > 100 µM | > 100 µM | 14.3 µM | 24.2 µM | – | – | – | –
c1ccc2c(c1)SC1Sc3ccccc3[S+]21 (stereo not given) | 37.4 µM | > 100 µM | > 100 µM | > 69.2 µM | > 100 µM | > 100 µM | 52.5 µM | 20.4 µM | > 100 µM | > 70.7 µM | 47.8 µM | 22.7 µM | 33.8 µM | – | – | – | –
COc1cc2[nH]c(-c3ccccc3)cc(=O)c2cc1OC | > 84.6 µM | > 100 µM | > 100 µM | > 28.8 µM | > 100 µM | > 100 µM | > 100 µM | > 100 µM | > 100 µM | > 66.6 µM | > 100 µM | 54.4 µM | > 100 µM | – | – | – | –
COc1ccc2c(c1)CC[C@@H]1[C@@H]2CC[C@]2(C)/C(=N/OCCN3CCCCC3)CC[C@@H]12 | 25 µM | 23.7 µM | 21 µM | 21.8 µM | 27.2 µM | 17.7 µM | 21.5 µM | 21.3 µM | 23 µM | 5.68 µM | 8.37 µM | 6.27 µM | 5.34 µM | – | – | – | –
